Experiments:
[1] = test system: Trichophyton rubrum; conditions: isolates of Trichophyton rubrum; cited from earlier work
[2] = test system: Trichophyton mentagrophytes; conditions: isolates of Trichophyton mentagrophytes; cited from earlier work
[3] = test system: Epidermophyton floccosum; conditions: isolates of Epidermophyton floccosum; cited from earlier work
[4] = test system: Microsporum canis; conditions: isolates of Microsporum canis; cited from earlier work
[5] = test system: Candida albicans; conditions: isolates of Candida albicans; cited from earlier work
[6] = test system: HIV; assay: inhibition of HIV infectivity; format: cell-based
[7] = test system: lactobacilli; assay: effect on lactobacilli; format: cell-based
Text: (§1) A preferred microbicidal agent according to the present invention is bisabolol. In particular, alpha-bisabolol (levomenol) is a preferred microbicidal agent. Bisabolol is a naturally occurring unsaturated monocyclic sesquiterpene alcohol. Alpha-bisabolol is used in a wide range or cosmetic formulations as a skin conditioning agent at concentrations ranging from approximately 0.001% in lipstick to approximately 1% in underarm deodorants. Bisabolol has been used for cosmetic purposes in India and worldwide in skin, oropharyngeal, nasal and vaginal products such as douches up to concentrations of approximately 5%, but has not been used in the prevention or treatment of STIs and/or common vaginal diseases. Bisabolol is the main active principle of chamomile (Matricaria chamomilla) and up to approximately 50% of the essential oil of chamomile consists of alpha-bisabolol.

[8] = oral and dermal toxicity, genotoxicity, reproductive/developmental toxicity, sensitization and photosensitization studies; conditions: oral, dermal, sensitization, photosensitization studies
Text: as §1

Structure (SMILES) | fungicidal activity in vitro [1] | fungicidal activity in vitro [2] | fungicidal activity in vitro [3] | fungicidal activity in vitro [4] | fungicidal activity in vitro [5] | anti-HIV activity [6] | IC50, inhibition of HIV infectivity ([6]; mixed with the virus and cells) [µg/mL] | IC50, inhibition of HIV infectivity ([6]; mixed with the virus for 5 minutes before washing) [µg/mL] | inactivation of HIV ([6]; washed away after short-term treatment) | effect on lactobacilli ([7]; concentration 2 mg/ml) | effect on lactobacilli ([7]; concentration 10 mg/ml) | toxicity [8]
Cc1cc(C2CCCCC2)n(O)c(=O)c1.NCCO [Ciclopirox Olamine, 6-Cyclohexyl-1-hydroxy-4-methyl-2-(1H)-pyridone ethanolamine salt] | exhibits fungicidal activity | exhibits fungicidal activity | exhibits fungicidal activity | exhibits fungicidal activity | exhibits fungicidal activity |  |  |  |  |  |  | 
CC(C)=CCCC(C)(O)C1CC=C(C)CC1 (stereo not drawn) [Bisabolol, 3-Cyclohexene-1-methanol, alpha,4-dimethyl-alpha-(4-methyl-3-pentenyl)] |  |  |  |  |  | very high anti-HIV activity | 0.6 | 1 | inactivates HIV | no effect | no effect | little toxicity

Source: patent publication US20050025847A1, “Microbicidal compositions and method of use” (Program for Appropriate Technology in Health, priority 2003, published 2005)
